We go through 23 compounds from patent publication US8859584B2, “TRPV1 antagonists” (AbbVie Inc., priority 2011, dated 2014).

The structures appear in SMILES notation.

Assay [1] addresses T1, human TRPV1 (Homo sapiens, UniProt Q8NER1).
T1 construct: expressed in transfected cells
The assay is described as follows: Capsaicin Activation Assay (FLIPR intracellular Ca2+, recombinant HEK293 cells). The format is cell-based. Conditions: recombinant HEK293 cells expressing hTRPV1; 50 nM capsaicin; read-out: human TRPV1 capsaicin IC50.

Assay [2] deals with T1, human TRPV1. In words: Acid Activation Assay (pH 5.0, FLIPR intracellular Ca2+, recombinant HEK293 cells). The format is cell-based. The settings on record: percentage of maximal pH 5.0-induced response remaining; HEK293 hTRPV1; max concentration 37.5 μM. The method in brief: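 HEK293 cells stably expressing recombinant hTRPV1 were loaded with calcium dye for 90-120 min at 25° C and pre-treated with compound for 3 min before a pH 5.0 (DPBS/MES) challenge. Peak FLIPR fluorescence over baseline is given as percentage of the maximal pH 5.0-induced response.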

Assay [3] deals with rats. The assay is described as follows: Sodium Iodoacetate-Induced Knee Joint Osteoarthritic Pain Model (hind limb grip force). Type of assay: in vivo. The settings on record: rat, 1 hour after administration, 20 days after sodium iodoacetate, read-out: % effect (% return to normalcy of hind limb grip force); for inhibition in vivo at 30 µmol/kg: 30 μmol/kg po single dose. The method, then: (v) Sodium Iodoacetate-Induced Knee Joint Osteoarthritic Pain Model
Unilateral knee joint osteoarthritis was induced in the rats by a single intra-articular (i.a.) injection of sodium iodoacetate (3 mg in 0.05 mL sterile isotonic saline) into the right knee joint cavity under light isoflurane anesthesia using a 26G needle. […] Pain behavioral assessment of hind limb grip force was conducted by recording the maximum compressive force exerted on the hind limb strain gauge setup, in a commercially available grip force measurement system (Columbus Instruments, Columbus, Ohio). The grip force data was converted to a maximum hindlimb cumulative compressive force (CFmax) (gram force)/kg body weight for each animal. The analgesic effects of test compounds were determined 20 days following the i.a. injection of sodium iodoacetate. The vehicle control group for each compound being tested was assigned 0% whereas the age matched naïve group was assigned as being 100% (normal). The % effect for each dose group was then expressed as % return to normalcy compared to the naïve group. Test compounds were administered orally in 10% ethanol/20% Tween 80/70% polyethylene glycol-400 vehicle at a volume of 2 mL/kg. The assessment of the analgesic effects of test compounds was made 1 hour following oral administration. The assessment of the analgesic effects of test compounds can be made following a single dose or following repeated administration wherein the frequency of dosing is 1 to 2 times daily. The duration of such repeated daily dosing may last for any time greater than one day. A typical duration of repeated daily dosing is about 5 days to about 12 days.

T1 sequence (Q8NER1 whole entry): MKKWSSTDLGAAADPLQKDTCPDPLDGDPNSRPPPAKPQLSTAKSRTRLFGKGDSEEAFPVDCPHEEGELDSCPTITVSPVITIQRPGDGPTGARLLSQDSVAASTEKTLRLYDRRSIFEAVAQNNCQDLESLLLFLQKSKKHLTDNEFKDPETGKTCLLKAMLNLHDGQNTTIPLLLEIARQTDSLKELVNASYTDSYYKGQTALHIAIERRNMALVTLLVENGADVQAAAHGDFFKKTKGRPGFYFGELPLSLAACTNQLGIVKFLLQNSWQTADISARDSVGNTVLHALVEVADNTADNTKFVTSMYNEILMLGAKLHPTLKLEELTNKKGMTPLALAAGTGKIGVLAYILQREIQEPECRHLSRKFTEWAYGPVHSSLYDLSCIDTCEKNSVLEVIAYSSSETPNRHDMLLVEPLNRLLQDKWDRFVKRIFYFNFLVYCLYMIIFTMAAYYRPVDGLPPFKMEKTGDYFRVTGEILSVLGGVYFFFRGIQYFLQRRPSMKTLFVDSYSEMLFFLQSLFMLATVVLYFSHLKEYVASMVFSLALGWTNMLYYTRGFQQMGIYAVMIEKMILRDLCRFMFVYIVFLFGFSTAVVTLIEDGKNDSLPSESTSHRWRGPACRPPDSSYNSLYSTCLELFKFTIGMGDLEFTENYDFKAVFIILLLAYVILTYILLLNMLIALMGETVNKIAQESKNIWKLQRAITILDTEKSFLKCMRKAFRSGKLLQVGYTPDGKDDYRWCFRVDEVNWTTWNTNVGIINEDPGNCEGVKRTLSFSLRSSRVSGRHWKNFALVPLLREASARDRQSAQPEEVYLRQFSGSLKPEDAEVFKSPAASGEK

The term IC50 denotes the midpoint of a concentration-inhibition curve. With `CC1(C)C[C@@H](NC(=O)Nc2cccc3c2C[C@H](O)C3)c2ccc(Cl)c(F)c2O1` [Example 10, 1-[(4R)-7-chloro-8-fluoro-2,2-dimethyl-3,4-dihydro-2H-chromen-4-yl]-3-[(2R)-2-hydroxy-2,3-dihydro-1H-inden-4-yl]urea], the IC50 in assay [1] came out at 0.027 µM. Also, the “human TRPV1 H+ (max % remain)” value in assay [2] stood at 74%. In addition, the inhibition in vivo at 17 µmol/kg in assay [3] (17 μmol/kg po single dose) came to 49%.
On to `CC1(C)C[C@@H](NC(=O)Nc2cccc3c2C[C@H](O)C3)c2ccc(Cl)cc2O1` [Example 13, 1-[(4R)-7-chloro-2,2-dimethyl-3,4-dihydro-2H-chromen-4-yl]-3-[(2R)-2-hydroxy-2,3-dihydro-1H-inden-4-yl]urea], for which, in assay [1], the half-maximal inhibitory concentration (IC50) was found to be 0.028 µM. Also, the “human TRPV1 H+ (max % remain)” value in assay [2] was found to be 62%. Further, the inhibition in vivo at 30 µmol/kg in assay [3] was 52%.
The corresponding values for `O=C(Nc1cccc2c1C[C@H](O)C2)N[C@@H]1CCc2cc(C(F)(F)F)ccc21` [Example 40, 1-[(2R)-2-hydroxy-2,3-dihydro-1H-inden-4-yl]-3-[(1R)-5-(trifluoromethyl)-2,3-dihydro-1H-inden-1-yl]urea] are 0.007 µM, 30% and 57%.
On to `C[C@]1(CF)C[C@@H](NC(=O)Nc2cccc3c2C[C@H](O)C3)c2ccc(C(F)(F)F)cc2O1` [Example 43, 1-[(2R,4R)-2-(fluoromethyl)-2-methyl-7-(trifluoromethyl)-3,4-dihydro-2H-chromen-4-yl]-3-[(2R)-2-hydroxy-2,3-dihydro-1H-inden-4-yl]urea], for which the IC50 in assay [1] was 0.018 µM. Also, the “human TRPV1 H+ (max % remain)” value in assay [2] is recorded as 48%. Also, in assay [3], the inhibition in vivo at 30 µmol/kg is 38%.
For the compound `O=C(Nc1cccc2c1C[C@H](O)C2)N[C@@H]1CCOc2cc(C(F)(F)F)ccc21` [Example 21, 1-[(2R)-2-hydroxy-2,3-dihydro-1H-inden-4-yl]-3-[(4R)-7-(trifluoromethyl)-3,4-dihydro-2H-chromen-4-yl]urea], the IC50 in assay [1] came out at 0.089 µM. In addition, in assay [2], the “human TRPV1 H+ (max % remain)” value came out at 74%.
The corresponding values for `O=C(Nc1cccc2c1C[C@H](O)C2)N[C@@H]1CC(CF)(CF)Oc2c(Cl)cccc21` [Example 2, 1-[(4R)-8-chloro-2,2-bis(fluoromethyl)-3,4-dihydro-2H-chromen-4-yl]-3-[(2R)-2-hydroxy-2,3-dihydro-1H-inden-4-yl]urea] are 0.16 µM and 80%.
For the compound `CC1(C)C[C@@H](NC(=O)Nc2cccc3c2C[C@H](O)C3)c2ccc(C(F)(F)F)nc2O1` [Example 105, 1-[(4R)-2,2-dimethyl-7-(trifluoromethyl)-3,4-dihydro-2H-pyrano[2,3-b]pyridin-4-yl]-3-[(2R)-2-hydroxy-2,3-dihydro-1H-inden-4-yl]urea], the IC50 in assay [1] worked out at 0.15 µM. For the same compound, the “human TRPV1 H+ (max % remain)” value in assay [2] was 39%.
The corresponding values for `O=C(Nc1cccc2c1C[C@@H](O)C2)N[C@@H]1CC(CF)(CF)Oc2ccccc21` [Example 86, 1-[(4R)-2,2-bis(fluoromethyl)-3,4-dihydro-2H-chromen-4-yl]-3-[(2S)-2-hydroxy-2,3-dihydro-1H-inden-4-yl]urea] are 1.6 µM and 46%.
As for `O=C(Nc1ccc(F)c2c1C[C@H](O)C2)N[C@@H]1CC(CF)(CF)Oc2ccccc21` [Example 151, 1-[(4R)-2,2-bis(fluoromethyl)-3,4-dihydro-2H-chromen-4-yl]-3-[(2S)-7-fluoro-2-hydroxy-2,3-dihydro-1H-inden-4-yl]urea], the IC50 in assay [1] was determined as 6.6 µM. The “human TRPV1 H+ (max % remain)” value in assay [2] was found to be 6%.
For `O=C(Nc1cccc2c1C[C@H](O)C2)N[C@H]1CC(CF)(CF)Oc2cc(Cl)ccc21` [Example 97, 1-[(4S)-7-chloro-2,2-bis(fluoromethyl)-3,4-dihydro-2H-chromen-4-yl]-3-[(2R)-2-hydroxy-2,3-dihydro-1H-inden-4-yl]urea] the same measures were 1.1 µM and 58%.
For `O=C(Nc1cccc2c1C[C@H](O)C2)N[C@@H]1CC(CF)(CF)Oc2ccc(F)cc21` [Example 57, 1-[(4R)-6-fluoro-2,2-bis(fluoromethyl)-3,4-dihydro-2H-chromen-4-yl]-3-[(2R)-2-hydroxy-2,3-dihydro-1H-inden-4-yl]urea] the same measures were 0.57 µM and 63%.
In the case of `O=C(Nc1ccc(F)c2c1CC(O)C2)NC1CCc2cc(C(F)(F)F)ccc21` (centres unmarked) [Example 155, 1-(7-fluoro-2-hydroxy-2,3-dihydro-1H-inden-4-yl)-3-[5-(trifluoromethyl)-2,3-dihydro-1H-inden-1-yl]urea], the IC50 in assay [1] stood at 0.042 µM. Besides, the “human TRPV1 H+ (max % remain)” value in assay [2] stood at 19%.
For `CC1(C)C[C@@H](NC(=O)Nc2ccc(F)c3c2C[C@H](O)C3)c2cc(F)ccc2O1` [Example 146, 1-[(4R)-6-fluoro-2,2-dimethyl-3,4-dihydro-2H-chromen-4-yl]-3-[(2S)-7-fluoro-2-hydroxy-2,3-dihydro-1H-inden-4-yl]urea] the same measures were 2.8 µM and 7%.
For `CC1(C)C[C@@H](NC(=O)Nc2cccc3c2C[C@H](O)C3)c2ccc(OC(F)(F)F)cc2O1` [Example 30, 1-[(4R)-2,2-dimethyl-7-(trifluoromethoxy)-3,4-dihydro-2H-chromen-4-yl]-3-[(2R)-2-hydroxy-2,3-dihydro-1H-inden-4-yl]urea] the same measures were 0.042 µM and 39%.
On to `O=C(Nc1cccc2c1C[C@H](O)C2)N[C@@H]1CCOc2c(F)cc(F)cc21` [Example 64, 1-[(4R)-6,8-difluoro-3,4-dihydro-2H-chromen-4-yl]-3-[(2R)-2-hydroxy-2,3-dihydro-1H-inden-4-yl]urea], for which, in assay [1], the half-maximal inhibitory concentration (IC50) is 4.8 µM. Further, in assay [2], the “human TRPV1 H+ (max % remain)” value is 90%.
As for `CC1(C)C[C@@H](NC(=O)Nc2cccc3c2C[C@H](O)C3)c2ccc(C(F)(F)F)cc2O1` [Example 3, 1-[(4R)-2,2-dimethyl-7-(trifluoromethyl)-3,4-dihydro-2H-chromen-4-yl]-3-[(2R)-2-hydroxy-2,3-dihydro-1H-inden-4-yl]urea], in assay [1], the IC50 turned out to be 0.027 µM. Further, the “human TRPV1 H+ (max % remain)” value in assay [2] was 55%.
For the compound `O=C(Nc1cccc2c1CC(O)C2)NC1c2ccccc2OCC1Cc1ccc(Cl)c(Cl)c1` (centres unmarked) [Example 112, 1-[3-(3,4-dichlorobenzyl)-3,4-dihydro-2H-chromen-4-yl]-3-(2-hydroxy-2,3-dihydro-1H-inden-4-yl)urea], in assay [1], the IC50 turned out to be 0.98 µM. Moreover, the “human TRPV1 H+ (max % remain)” value in assay [2] came out at 77%.
The corresponding values for `C[C@@]1(CF)C[C@@H](NC(=O)Nc2cccc3c2C[C@H](O)C3)c2ccc(Cl)cc2O1` [Example 16, 1-[(2S,4R)-7-chloro-2-(fluoromethyl)-2-methyl-3,4-dihydro-2H-chromen-4-yl]-3-[(2R)-2-hydroxy-2,3-dihydro-1H-inden-4-yl]urea] are 0.037 µM and 57%.
The corresponding values for `Cc1c(F)ccc2c1OC(C)(C)C[C@H]2NC(=O)Nc1cccc2c1C[C@H](O)C2` [Example 62, 1-[(4R)-7-fluoro-2,2,8-trimethyl-3,4-dihydro-2H-chromen-4-yl]-3-[(2R)-2-hydroxy-2,3-dihydro-1H-inden-4-yl]urea] are 0.02 µM and 86%.
As to `C[C@]1(CF)C[C@@H](NC(=O)Nc2cccc3c2C[C@H](O)C3)c2ccc(Cl)cc2O1` [Example 15, 1-[(2R,4R)-7-chloro-2-(fluoromethyl)-2-methyl-3,4-dihydro-2H-chromen-4-yl]-3-[(2R)-2-hydroxy-2,3-dihydro-1H-inden-4-yl]urea], the IC50 in assay [1] was determined as 0.06 µM. Also, in assay [2], the “human TRPV1 H+ (max % remain)” value amounted to 63%.
For the compound `O=C(Nc1cccc2c1CC(O)C2)NC1c2ccccc2OCC1c1ccccc1` (centres unmarked) [Example 108, 1-(2-hydroxy-2,3-dihydro-1H-inden-4-yl)-3-(3-phenyl-3,4-dihydro-2H-chromen-4-yl)urea], the IC50 in assay [1] stood at 8 µM. In assay [2], the “human TRPV1 H+ (max % remain)” value came to 97%.
In the case of `CC1(C)C[C@@H](NC(=O)Nc2cccc3c2C[C@@H](O)C3)c2ccc(F)c(F)c2O1` [Example 38, 1-[(4R)-7,8-difluoro-2,2-dimethyl-3,4-dihydro-2H-chromen-4-yl]-3-[(2S)-2-hydroxy-2,3-dihydro-1H-inden-4-yl]urea], the IC50 in assay [1] was 0.037 µM. Besides, the “human TRPV1 H+ (max % remain)” value in assay [2] is on record as 43%.
For `COc1ccc2c(c1)OC(c1ccc(Cl)cc1)CC2NC(=O)Nc1cccc2c1CC(O)C2` (centres unmarked) [Example 122, 1-[2-(4-chlorophenyl)-7-methoxy-3,4-dihydro-2H-chromen-4-yl]-3-(2-hydroxy-2,3-dihydro-1H-inden-4-yl)urea] the same measures were 0.71 µM and 14%.
